Experimental findings from ChEMBL document CHEMBL5465560, “Selectivity Literature for EUbOPEN Chemogenomic Library” (2024) are described below.

The target of assay [1] is T1, Mitogen-activated protein kinase kinase kinase 5 (Homo sapiens) (UniProt Q99683).
T1 sequence (whole entry): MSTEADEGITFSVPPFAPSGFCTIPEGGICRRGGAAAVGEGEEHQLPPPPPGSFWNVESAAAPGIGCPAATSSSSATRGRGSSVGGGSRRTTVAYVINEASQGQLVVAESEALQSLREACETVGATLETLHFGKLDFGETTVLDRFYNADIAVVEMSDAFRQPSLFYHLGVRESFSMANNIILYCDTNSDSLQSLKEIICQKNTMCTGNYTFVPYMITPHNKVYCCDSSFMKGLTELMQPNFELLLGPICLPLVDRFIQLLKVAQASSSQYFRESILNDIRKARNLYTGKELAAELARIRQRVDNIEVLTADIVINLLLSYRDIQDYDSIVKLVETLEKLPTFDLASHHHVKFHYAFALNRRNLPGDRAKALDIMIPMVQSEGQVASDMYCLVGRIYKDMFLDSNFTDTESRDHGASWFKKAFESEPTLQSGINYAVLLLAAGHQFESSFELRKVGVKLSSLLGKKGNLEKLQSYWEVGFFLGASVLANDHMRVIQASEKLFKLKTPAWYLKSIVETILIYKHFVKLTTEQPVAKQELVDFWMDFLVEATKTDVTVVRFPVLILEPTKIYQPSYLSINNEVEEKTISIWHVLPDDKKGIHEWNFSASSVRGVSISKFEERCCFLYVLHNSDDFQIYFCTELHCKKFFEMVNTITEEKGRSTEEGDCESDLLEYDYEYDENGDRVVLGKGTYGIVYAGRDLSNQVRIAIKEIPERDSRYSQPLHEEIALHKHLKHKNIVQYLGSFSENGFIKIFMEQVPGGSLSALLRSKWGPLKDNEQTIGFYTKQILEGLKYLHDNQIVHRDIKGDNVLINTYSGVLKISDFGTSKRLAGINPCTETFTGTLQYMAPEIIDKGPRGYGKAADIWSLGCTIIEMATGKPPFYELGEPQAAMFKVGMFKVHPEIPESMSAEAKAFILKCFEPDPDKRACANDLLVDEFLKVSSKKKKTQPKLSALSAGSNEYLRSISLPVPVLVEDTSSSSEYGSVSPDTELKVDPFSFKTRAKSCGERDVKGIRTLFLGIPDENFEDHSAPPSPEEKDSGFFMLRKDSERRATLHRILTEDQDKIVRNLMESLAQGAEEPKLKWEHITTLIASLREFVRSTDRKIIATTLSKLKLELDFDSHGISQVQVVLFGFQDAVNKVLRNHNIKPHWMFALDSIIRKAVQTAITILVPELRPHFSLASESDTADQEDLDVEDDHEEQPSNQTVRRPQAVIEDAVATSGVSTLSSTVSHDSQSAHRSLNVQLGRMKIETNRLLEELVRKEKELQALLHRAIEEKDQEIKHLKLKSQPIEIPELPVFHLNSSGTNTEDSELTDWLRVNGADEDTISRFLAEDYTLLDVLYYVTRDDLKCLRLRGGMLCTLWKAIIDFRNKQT
In words: Selectivity interaction (LanthaScreen Eu Kinase Binding Assay) EUB0001632a MAP3K5. The settings on record: at 10 µM. A general note: In TR-FRET formats the signal depends on donor and acceptor labels being close together.

In assay [2] the target is T2, Tyrosine-protein kinase JAK1 (Homo sapiens, UniProt P23458). Briefly: Selectivity interaction (KinomeScan (DiscoverX)) EUB0000695a JAK1. Particulars: at 100 nM.
T2 sequence (P23458 whole entry, canonical isoform): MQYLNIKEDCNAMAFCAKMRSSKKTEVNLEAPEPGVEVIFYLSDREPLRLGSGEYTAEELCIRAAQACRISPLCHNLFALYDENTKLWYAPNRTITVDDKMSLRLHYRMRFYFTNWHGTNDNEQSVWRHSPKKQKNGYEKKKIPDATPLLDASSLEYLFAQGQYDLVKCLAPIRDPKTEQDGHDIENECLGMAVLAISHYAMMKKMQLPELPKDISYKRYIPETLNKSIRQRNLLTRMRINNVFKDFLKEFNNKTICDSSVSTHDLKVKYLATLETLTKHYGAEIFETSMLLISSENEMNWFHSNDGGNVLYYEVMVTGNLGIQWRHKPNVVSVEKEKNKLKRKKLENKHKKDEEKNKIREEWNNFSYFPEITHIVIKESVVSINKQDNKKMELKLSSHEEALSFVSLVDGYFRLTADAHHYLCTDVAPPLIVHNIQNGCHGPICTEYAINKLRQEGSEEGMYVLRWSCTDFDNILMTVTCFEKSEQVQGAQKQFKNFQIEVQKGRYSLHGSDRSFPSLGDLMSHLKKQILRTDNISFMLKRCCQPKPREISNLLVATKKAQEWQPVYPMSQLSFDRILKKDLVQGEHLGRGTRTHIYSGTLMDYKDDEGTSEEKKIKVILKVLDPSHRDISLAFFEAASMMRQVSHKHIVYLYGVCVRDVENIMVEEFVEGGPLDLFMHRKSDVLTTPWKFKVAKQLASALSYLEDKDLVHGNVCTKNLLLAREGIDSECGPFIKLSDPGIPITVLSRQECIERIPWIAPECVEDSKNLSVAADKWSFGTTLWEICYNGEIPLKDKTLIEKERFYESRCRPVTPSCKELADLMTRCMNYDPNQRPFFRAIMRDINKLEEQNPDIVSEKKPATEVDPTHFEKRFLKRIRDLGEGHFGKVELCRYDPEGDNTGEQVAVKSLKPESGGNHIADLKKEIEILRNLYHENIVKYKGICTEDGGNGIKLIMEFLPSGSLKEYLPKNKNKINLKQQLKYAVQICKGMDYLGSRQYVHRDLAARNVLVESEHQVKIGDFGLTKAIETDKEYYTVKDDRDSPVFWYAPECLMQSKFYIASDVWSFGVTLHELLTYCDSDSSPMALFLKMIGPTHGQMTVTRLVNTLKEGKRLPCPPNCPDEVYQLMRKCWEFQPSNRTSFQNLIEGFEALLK
In assay [3] the target is Casein kinase I isoform epsilon (Homo sapiens, UniProt P49674). The settings on record: at 10 µM.
Sequence of Casein kinase I isoform epsilon (P49674 whole entry, looked up, canonical isoform): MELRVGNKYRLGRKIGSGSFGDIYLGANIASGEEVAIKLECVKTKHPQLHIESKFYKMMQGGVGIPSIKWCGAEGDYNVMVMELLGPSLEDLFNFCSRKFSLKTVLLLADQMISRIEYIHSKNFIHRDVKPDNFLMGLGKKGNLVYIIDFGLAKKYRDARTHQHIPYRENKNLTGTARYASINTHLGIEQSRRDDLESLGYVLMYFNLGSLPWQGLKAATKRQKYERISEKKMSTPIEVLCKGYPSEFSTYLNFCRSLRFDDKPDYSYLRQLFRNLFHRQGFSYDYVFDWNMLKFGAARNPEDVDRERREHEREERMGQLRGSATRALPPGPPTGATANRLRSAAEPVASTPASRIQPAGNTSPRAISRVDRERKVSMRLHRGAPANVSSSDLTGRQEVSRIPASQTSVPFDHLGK
Assay [4] addresses Mitogen-activated protein kinase 8 (Homo sapiens, UniProt P45983). In words: Selectivity interaction (Kinase screening (Upstate/Millipore)) EUB0000604a MAPK8.
The target of assay [5] is 1-phosphatidylinositol 3-phosphate 5-kinase (Homo sapiens) (UniProt Q9Y2I7). In words: Selectivity interaction (KinomeScan (DiscoverX)) EUB0001049a PIKFYVE. Particulars: at 1 µM.
Sequence of 1-phosphatidylinositol 3-phosphate 5-kinase (Homo sapiens) (Q9Y2I7 whole entry): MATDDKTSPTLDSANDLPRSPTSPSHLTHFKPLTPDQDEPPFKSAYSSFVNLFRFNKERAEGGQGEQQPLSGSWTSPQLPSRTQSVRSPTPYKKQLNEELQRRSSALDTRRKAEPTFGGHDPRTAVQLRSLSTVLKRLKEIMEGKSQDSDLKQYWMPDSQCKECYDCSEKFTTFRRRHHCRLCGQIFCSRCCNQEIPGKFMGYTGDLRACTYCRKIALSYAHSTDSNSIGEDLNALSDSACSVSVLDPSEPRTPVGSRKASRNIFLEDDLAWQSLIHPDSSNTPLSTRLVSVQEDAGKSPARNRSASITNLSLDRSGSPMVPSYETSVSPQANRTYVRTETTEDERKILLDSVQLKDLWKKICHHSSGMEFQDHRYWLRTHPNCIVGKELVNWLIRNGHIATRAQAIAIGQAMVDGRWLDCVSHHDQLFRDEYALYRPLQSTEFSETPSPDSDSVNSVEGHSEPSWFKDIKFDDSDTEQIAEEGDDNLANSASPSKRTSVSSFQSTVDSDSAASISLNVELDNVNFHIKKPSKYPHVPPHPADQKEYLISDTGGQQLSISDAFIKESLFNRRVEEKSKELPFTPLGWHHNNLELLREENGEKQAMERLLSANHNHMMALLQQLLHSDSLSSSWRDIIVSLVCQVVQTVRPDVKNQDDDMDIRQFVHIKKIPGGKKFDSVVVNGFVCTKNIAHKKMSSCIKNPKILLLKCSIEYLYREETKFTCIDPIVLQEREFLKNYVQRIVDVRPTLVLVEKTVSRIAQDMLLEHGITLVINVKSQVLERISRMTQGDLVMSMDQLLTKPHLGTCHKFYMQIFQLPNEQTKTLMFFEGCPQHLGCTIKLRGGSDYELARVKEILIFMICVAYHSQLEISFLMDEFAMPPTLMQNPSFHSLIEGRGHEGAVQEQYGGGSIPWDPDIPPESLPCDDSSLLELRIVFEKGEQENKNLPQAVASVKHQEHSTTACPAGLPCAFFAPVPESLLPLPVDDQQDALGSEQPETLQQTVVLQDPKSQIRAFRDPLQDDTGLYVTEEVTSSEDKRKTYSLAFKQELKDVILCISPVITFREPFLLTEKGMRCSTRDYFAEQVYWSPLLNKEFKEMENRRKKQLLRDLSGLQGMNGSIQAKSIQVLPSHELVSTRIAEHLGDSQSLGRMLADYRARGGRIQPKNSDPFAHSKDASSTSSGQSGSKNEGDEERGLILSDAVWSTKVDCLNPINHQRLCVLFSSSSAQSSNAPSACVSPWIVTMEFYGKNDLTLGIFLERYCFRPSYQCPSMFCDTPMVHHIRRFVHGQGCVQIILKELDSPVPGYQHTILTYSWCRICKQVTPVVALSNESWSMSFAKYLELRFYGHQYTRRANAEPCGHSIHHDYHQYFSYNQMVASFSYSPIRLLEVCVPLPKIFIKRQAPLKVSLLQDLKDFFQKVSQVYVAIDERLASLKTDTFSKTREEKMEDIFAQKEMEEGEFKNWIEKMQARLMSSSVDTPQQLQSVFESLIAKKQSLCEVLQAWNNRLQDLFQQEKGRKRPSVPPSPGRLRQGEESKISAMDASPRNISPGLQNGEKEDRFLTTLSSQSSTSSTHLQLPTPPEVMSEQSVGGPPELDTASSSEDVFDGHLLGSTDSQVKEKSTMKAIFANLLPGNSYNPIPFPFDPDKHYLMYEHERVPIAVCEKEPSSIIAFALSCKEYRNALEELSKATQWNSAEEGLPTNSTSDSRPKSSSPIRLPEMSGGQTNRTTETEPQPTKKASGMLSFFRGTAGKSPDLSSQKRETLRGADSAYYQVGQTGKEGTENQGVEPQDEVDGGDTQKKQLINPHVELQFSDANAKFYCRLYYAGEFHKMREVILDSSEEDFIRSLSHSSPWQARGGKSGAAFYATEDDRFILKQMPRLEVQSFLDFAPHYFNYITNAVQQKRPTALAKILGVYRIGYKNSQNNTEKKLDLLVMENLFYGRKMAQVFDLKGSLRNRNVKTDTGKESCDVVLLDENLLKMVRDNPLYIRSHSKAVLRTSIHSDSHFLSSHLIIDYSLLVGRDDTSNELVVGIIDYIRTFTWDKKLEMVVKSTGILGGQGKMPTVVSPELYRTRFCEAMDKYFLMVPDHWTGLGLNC
For assay [6], the target named is Serine/threonine-protein kinase 26 (Homo sapiens, UniProt Q9P289). In words: Selectivity interaction (Upstate Kinase Profiler service (Millipore)) EUB0000056c STK26. The settings on record: at 1 µM.
Sequence of Serine/threonine-protein kinase 26 (Q9P289 2-416 limits assumed): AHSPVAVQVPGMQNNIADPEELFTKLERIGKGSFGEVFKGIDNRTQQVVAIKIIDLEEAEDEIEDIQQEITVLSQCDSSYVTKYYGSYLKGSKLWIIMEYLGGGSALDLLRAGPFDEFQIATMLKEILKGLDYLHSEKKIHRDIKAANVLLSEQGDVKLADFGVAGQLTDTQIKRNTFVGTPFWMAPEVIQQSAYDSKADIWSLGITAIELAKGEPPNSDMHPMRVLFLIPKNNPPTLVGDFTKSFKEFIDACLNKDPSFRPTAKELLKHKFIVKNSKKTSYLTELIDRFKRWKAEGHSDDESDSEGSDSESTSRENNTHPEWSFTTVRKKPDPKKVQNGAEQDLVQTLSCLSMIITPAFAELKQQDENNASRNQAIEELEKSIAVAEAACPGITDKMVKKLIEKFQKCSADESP
Assay [7] concerns the target Serine/threonine-protein kinase 33 (Homo sapiens) (UniProt Q9BYT3). In words: Selectivity interaction (KinomeScan (DiscoverX)) EUB0000655a STK33. Particulars: at 10 µM.
Assay [8] deals with T1, Mitogen-activated protein kinase kinase kinase 5 (Homo sapiens). Briefly: Selectivity interaction (KinomeScan (DiscoverX)) EUB0000092b MAP3K5. Particulars: at 10 µM.
The target in assay [9] is T2, Tyrosine-protein kinase JAK1. In words: Selectivity interaction (KinomeScan (DiscoverX)) EUB0001079a JAK1. Particulars: at 1 µM.

SMILES strings stand for the structures.

Sequence of Serine/threonine-protein kinase 33 (Homo sapiens) (Q9BYT3 whole entry, looked up): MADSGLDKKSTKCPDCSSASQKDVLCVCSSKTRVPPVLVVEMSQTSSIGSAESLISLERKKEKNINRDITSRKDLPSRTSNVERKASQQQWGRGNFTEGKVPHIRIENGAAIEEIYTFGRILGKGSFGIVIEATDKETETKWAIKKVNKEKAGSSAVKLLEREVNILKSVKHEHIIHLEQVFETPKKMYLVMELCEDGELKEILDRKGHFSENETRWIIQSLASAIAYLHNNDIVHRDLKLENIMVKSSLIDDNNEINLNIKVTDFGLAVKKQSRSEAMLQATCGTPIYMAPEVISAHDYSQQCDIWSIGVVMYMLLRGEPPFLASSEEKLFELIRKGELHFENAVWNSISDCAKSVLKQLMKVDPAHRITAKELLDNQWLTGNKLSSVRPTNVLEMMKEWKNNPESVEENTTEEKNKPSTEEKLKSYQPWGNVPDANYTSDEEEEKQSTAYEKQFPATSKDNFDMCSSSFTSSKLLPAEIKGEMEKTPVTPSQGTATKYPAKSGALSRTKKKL
Sequence of Mitogen-activated protein kinase 8 (P45983 whole entry): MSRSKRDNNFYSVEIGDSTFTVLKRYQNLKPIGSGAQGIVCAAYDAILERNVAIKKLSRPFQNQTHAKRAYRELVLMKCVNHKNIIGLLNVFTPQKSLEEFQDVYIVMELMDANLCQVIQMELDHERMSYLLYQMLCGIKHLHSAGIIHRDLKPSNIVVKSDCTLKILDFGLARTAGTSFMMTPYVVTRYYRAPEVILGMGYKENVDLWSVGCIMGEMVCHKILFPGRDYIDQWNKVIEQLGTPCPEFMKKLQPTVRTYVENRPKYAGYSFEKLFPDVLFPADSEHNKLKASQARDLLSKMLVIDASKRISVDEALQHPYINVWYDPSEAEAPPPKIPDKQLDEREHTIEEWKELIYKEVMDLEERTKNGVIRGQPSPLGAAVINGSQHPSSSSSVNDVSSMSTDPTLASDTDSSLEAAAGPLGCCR

`Cn1cc(-n2cnc3c(NCc4nc5cc(Cl)c(Cl)cc5[nH]4)nc(N4CCOCC4)nc32)cn1`: in assay [1], the % of inhibition was -14.2%. On to `Cc1cc(F)c(C(=O)Nc2cccc(-c3nncn3C(C)C)n2)cc1-n1cnc(C2CC2)c1`, for which the % of control in assay [2] came to 93%. On to `Cc1cc([C@@H](C)Nc2ccccc2C(=O)O)c2nc(N3CCOCC3)cc(=O)n2c1` [AZD-6482], for which, in assay [3], the % of control was determined as 98%. Take `Cc1cnc(Nc2ccc(F)cc2Cl)nc1-c1c[nH]c(C(=O)N[C@H](CO)c2cccc(Cl)c2)c1`: the % of inhibition in [4] came out at 34%. In turn, `COc1cc(Nc2nc(C)cc(-c3cnn4nc(OC)ccc34)n2)cc(C(F)(F)F)c1` registered a % of control in [5] of 100%.

Regarding `Cc1ccc(-c2ccc3c(ccc4sc5c(c43)NC[C@@H](C)NC5=O)n2)cn1`, the % of inhibition in assay [6] is 15%. As for `CN(C)CCOc1ccc(-c2nc(-c3ccncc3)c(-c3ccc4c(c3)CC/C4=N\O)[nH]2)cc1`, the % of control in assay [7] was 88%.

`CCC(=O)N1CCN(c2ccc(-n3c(=O)ccc4cnc5ccc(-c6cnc7ccccc7c6)cc5c43)cc2C(F)(F)F)CC1` had a % of control in assay [8] of 100%. On to `Nc1cnc(N2CCc3cc(S(=O)(=O)Nc4c(F)cc(Cl)cc4F)cc(N4CCCC4=O)c32)nc1` [TP-020n], for which, in [9], the % of control was determined as 100%.
